Laboratory results from patent publication US20240190860A1, “8-CYCLO-SUBSTITUTED QUINAZOLINE DERIVATIVES AS LPA RECEPTOR 2 INHIBITORS” (CHIESI FARMACEUTICI S.p.A., priority 2021, published 2024).
pIC50: −log10 of the molar value.

Target: T1, human recombinant LPA2 expressed in CHO cells (Homo sapiens, UniProt Q9HBW0)
T1 construct: expressed in transfected cells; host or cells: CHO cells (CHO-hLPA2 cell line)
Assay: FLIPR calcium mobilization assay, LPA2 antagonism in CHO-hLPA2 cells
Type: cell-based
Details: CHO-hLPA2 cells, inhibition of LPA EC80 Ca2+ response, 30 min pre-incubation; read-out: LPA2 IC50
Summary of the method: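 Antagonist potency from four-parameter logistic fit (pIC50) of % inhibition of peak Ca2+ signal evoked by an EC80 LPA challenge. Before challenge, hLPA2-CHO cells were dye-loaded (5 μM Cal-520 AM, 2.5 mM probenecid, pH 7.4 HEPES buffer, 30 min, 37° C) and exposed 30 min to compound at 11 concentrations, 0.5% DMSO final.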

T1 sequence (Q9HBW0 whole entry): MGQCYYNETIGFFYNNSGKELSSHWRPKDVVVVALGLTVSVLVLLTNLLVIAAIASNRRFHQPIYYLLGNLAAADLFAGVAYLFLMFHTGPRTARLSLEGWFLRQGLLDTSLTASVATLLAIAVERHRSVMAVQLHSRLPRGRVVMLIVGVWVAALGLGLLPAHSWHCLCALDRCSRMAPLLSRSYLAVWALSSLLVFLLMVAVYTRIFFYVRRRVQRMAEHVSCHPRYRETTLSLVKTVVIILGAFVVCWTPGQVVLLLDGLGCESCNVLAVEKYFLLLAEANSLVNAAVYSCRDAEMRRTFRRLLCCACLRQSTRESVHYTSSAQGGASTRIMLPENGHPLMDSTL

| Compound | pIC50 |
| --- | --- |
| COC(=O)Nc1nc(C)c(S(=O)(=O)N2CCN(C[C@H](C)Nc3ncnc4c(-c5ccnc(C#N)n5)cccc34)CC2)s1 [Example 73, methyl N-[5-({4-[(2S)-2-{[8-(2-cyanopyrimidin-4-yl)quinazolin-4-yl]amino}propyl]piperazin-1-yl}sulfonyl)-4-methyl-1,3-thiazol-2-yl]carbamate] | 7.00 to 8.00 |
| COC(=O)Nc1nc(C)c(S(=O)(=O)N2CCN(C[C@H](C)Nc3ncnc4c(-c5ccc(F)c(Cl)n5)cccc34)CC2)s1 [Example 74, methyl N-[5-({4-[(2S)-2-{[8-(6-chloro-5-fluoropyridin-2-yl)quinazolin-4-yl]amino}propyl]piperazin-1-yl}sulfonyl)-4-methyl-1,3-thiazol-2-yl]carbamate] | 7.00 to 8.00 |
| COC(=O)Nc1ncc(S(=O)(=O)N2CCN(C[C@H](C)Nc3ncnc4c(-c5cccc(CN(C)C)c5)cccc34)CC2)s1 [Example 75, methyl N-[5-({4-[(2S)-2-[(8-{3-[(dimethylamino)methyl]phenyl}quinazolin-4-yl)amino]propyl]piperazin-1-yl}sulfonyl)-1,3-thiazol-2-yl]carbamate] | > 8.00 |
| C[C@@H](CN1CCN(S(=O)(=O)c2ccc3c(c2)CC(=O)N3)CC1)Nc1ncnc2c(-c3cccc(CN(C)C)c3)cccc12 [Example 76, 5-({4-[(2S)-2-[(8-{3-[(dimethylamino)methyl]phenyl}quinazolin-4-yl)amino]propyl]piperazin-1-yl}sulfonyl)-2,3-dihydro-1H-indol-2-one] | > 8.00 |
| C[C@@H](CN1CCN(S(=O)(=O)c2ccc3[nH]c(=O)[nH]c(=O)c3c2)CC1)Nc1ncnc2c(-c3cccc(CN(C)C)c3)cccc12 [Example 77, 6-({4-[(2S)-2-[(8-{3-[(dimethylamino)methyl]phenyl}quinazolin-4-yl)amino]propyl]piperazin-1-yl}sulfonyl)-1,2,3,4-tetrahydroquinazoline-2,4-dione] | > 8.00 |
| Cc1ccc(-c2cccc3c(N[C@@H](C)CN4CCN(S(=O)(=O)c5ccc6[nH]c(=O)sc6c5)CC4)ncnc23)cn1 [Example 78, 6-({4-[(2S)-2-{[8-(6-methylpyridin-3-yl)quinazolin-4-yl]amino}propyl]piperazin-1-yl}sulfonyl)-2,3-dihydro-1,3-benzothiazol-2-one] | 7.00 to 8.00 |
| C[C@@H](CN1CCN(S(=O)(=O)c2ccc3[nH]c(=O)sc3c2)CC1)Nc1ncnc2c(-c3cn(C)nc3C(F)(F)F)cccc12 [Example 79, 6-({4-[(2S)-2-({8-[1-methyl-3-(trifluoromethyl)-1H-pyrazol-4-yl]quinazolin-4-yl}amino)propyl]piperazin-1-yl}sulfonyl)-2,3-dihydro-1,3-benzothiazol-2-one] | > 8.00 |
| COC(=O)Nc1nc(C)c(S(=O)(=O)N2CCN(C[C@H](C)Nc3ncnc4c(-c5ccc6c(c5)CN(C)C6)cccc34)CC2)s1 [Example 80, methyl N-[4-methyl-5-({4-[(2S)-2-{[8-(2-methyl-2,3-dihydro-1H-isoindol-5-yl)quinazolin-4-yl]amino}propyl]piperazin-1-yl}sulfonyl)-1,3-thiazol-2-yl]carbamate] | > 8.00 |
| COCC(=O)Nc1ncc(S(=O)(=O)N2CCN(C[C@H](C)Nc3ncnc4c(-c5cccc(CN(C)C)c5)cccc34)CC2)s1 [Example 81, N-[5-({4-[(2S)-2-[(8-{3-[(dimethylamino)methyl]phenyl}quinazolin-4-yl)amino]propyl]piperazin-1-yl}sulfonyl)-1,3-thiazol-2-yl]-2-methoxyacetamide] | > 8.00 |
| COC(=O)Nc1nc(C)c(S(=O)(=O)N2CCN(C[C@H](C)Nc3ncnc4c(-c5c[nH]nc5C(F)(F)F)cccc34)CC2)s1 [Example 82, methyl N-[4-methyl-5-({4-[(2S)-2-({8-[3-(trifluoromethyl)-1H-pyrazol-4-yl]quinazolin-4-yl}amino)propyl]piperazin-1-yl}sulfonyl)-1,3-thiazol-2-yl]carbamate] | > 8.00 |
